Values of other authors in patent US9795689B2, “Crosslinked polymer nano-assemblies and uses thereof” (University of Massachusetts, priority 2012, dated 2017).

C=C(C)C(=O)OCCN(C(C)C)C(C)C [DPA, 2-(diisopropylamino)ethyl methacrylate]
pKa of the protonated form of the amine: around 6.2
